Measurements: the NIST ThermoML archive (doi:10.1016/j.jct.2017.03.006)
Numbers after ± are expanded uncertainties.

Experiment: xn = mol fraction of the nth substance listed
Settings: Liquid, x1 = 1; for mass density: Vibrating tube method; for viscosity: Concentric cylinders viscometry

A mass density (273.15 K, 100 kPa) of 822.3 ± 0.7 kg/m3, a mass density (273.15 K, 1000 kPa) of 822.7 ± 0.7 kg/m3 and a mass density (273.15 K, 2000 kPa) of 823.4 ± 0.7 kg/m3 were found for `CCC(C)O` (stereo unspecified) [butan-2-ol] + Cc1ccc(C)c(C)c1 in this work. It also gave a mass density (273.15 K, 5000 kPa) of 825.4 ± 0.7 kg/m3, a mass density (273.15 K, 10000 kPa) of 828.7 ± 0.7 kg/m3 and a mass density (273.15 K, 15000 kPa) of 831.8 ± 0.7 kg/m3. The mass density (273.15 K, 20000 kPa) was 834.7 ± 0.7 kg/m3, the mass density (273.15 K, 30000 kPa) was 840.4 ± 0.8 kg/m3 and the mass density (273.15 K, 40000 kPa) was 845.7 ± 0.8 kg/m3. For the same compound, the mass density (273.15 K, 50000 kPa) was 850.7 ± 0.8 kg/m3, the mass density (273.15 K, 60000 kPa) was 855.4 ± 0.8 kg/m3 and the mass density (273.15 K, 70000 kPa) was 859.9 ± 0.8 kg/m3. It also gave a mass density (273.15 K, 80000 kPa) of 864.3 ± 0.8 kg/m3, a mass density (273.15 K, 90000 kPa) of 868.4 ± 0.9 kg/m3 and a mass density (273.15 K, 100000 kPa) of 872.4 ± 0.9 kg/m3. For the same compound, the mass density (273.15 K, 110000 kPa) was 876.3 ± 0.9 kg/m3, the mass density (273.15 K, 120000 kPa) was 879.9 ± 0.9 kg/m3 and the mass density (273.15 K, 130000 kPa) was 883.5 ± 0.9 kg/m3. For the same compound, the mass density (273.15 K, 140000 kPa) was 887.2 ± 0.9 kg/m3, the viscosity (293.15 K, 100 kPa) was 3.725 ± 0.076 mPa·s and the mass density (293.15 K, 100 kPa) was 806.3 ± 0.7 kg/m3. It also gave a mass density (293.15 K, 1000 kPa) of 807 ± 0.7 kg/m3, a mass density (293.15 K, 2000 kPa) of 807.8 ± 0.7 kg/m3 and a mass density (293.15 K, 5000 kPa) of 810 ± 0.7 kg/m3. It also gave a mass density (293.15 K, 10000 kPa) of 813.6 ± 0.7 kg/m3, a mass density (293.15 K, 15000 kPa) of 817 ± 0.7 kg/m3 and a mass density (293.15 K, 20000 kPa) of 820.2 ± 0.7 kg/m3. For the same compound, the mass density (293.15 K, 30000 kPa) was 826.5 ± 0.8 kg/m3, the mass density (293.15 K, 40000 kPa) was 832.3 ± 0.8 kg/m3 and the mass density (293.15 K, 50000 kPa) was 837.7 ± 0.8 kg/m3. For the same compound, the mass density (293.15 K, 60000 kPa) was 842.8 ± 0.8 kg/m3, the mass density (293.15 K, 70000 kPa) was 847.7 ± 0.8 kg/m3 and the mass density (293.15 K, 80000 kPa) was 852.3 ± 0.9 kg/m3. The mass density (293.15 K, 90000 kPa) was 856.7 ± 0.9 kg/m3, the mass density (293.15 K, 100000 kPa) was 860.9 ± 0.9 kg/m3 and the mass density (293.15 K, 110000 kPa) was 865 ± 0.9 kg/m3. For the same compound, the mass density (293.15 K, 120000 kPa) was 868.8 ± 1 kg/m3, the mass density (293.15 K, 130000 kPa) was 872.7 ± 1 kg/m3 and the mass density (293.15 K, 140000 kPa) was 876.3 ± 1 kg/m3. The viscosity (303.15 K, 100 kPa) was 2.555 ± 0.053 mPa·s, the viscosity (313.15 K, 100 kPa) was 1.814 ± 0.038 mPa·s and the mass density (313.15 K, 100 kPa) was 789.4 ± 0.7 kg/m3. For the same compound, the mass density (313.15 K, 1000 kPa) was 790.1 ± 0.7 kg/m3, the mass density (313.15 K, 2000 kPa) was 791 ± 0.7 kg/m3 and the mass density (313.15 K, 5000 kPa) was 793.5 ± 0.7 kg/m3. The mass density (313.15 K, 10000 kPa) was 797.5 ± 0.7 kg/m3, the mass density (313.15 K, 15000 kPa) was 801.4 ± 0.7 kg/m3 and the mass density (313.15 K, 20000 kPa) was 805.1 ± 0.7 kg/m3. For the same compound, the mass density (313.15 K, 30000 kPa) was 811.9 ± 0.8 kg/m3, the mass density (313.15 K, 40000 kPa) was 818.3 ± 0.8 kg/m3 and the mass density (313.15 K, 50000 kPa) was 824.1 ± 0.8 kg/m3. For the same compound, the mass density (313.15 K, 60000 kPa) was 829.6 ± 0.8 kg/m3, the mass density (313.15 K, 70000 kPa) was 835 ± 0.9 kg/m3 and the mass density (313.15 K, 80000 kPa) was 839.9 ± 0.9 kg/m3. The mass density (313.15 K, 90000 kPa) was 844.6 ± 0.9 kg/m3, the mass density (313.15 K, 100000 kPa) was 849 ± 0.9 kg/m3 and the mass density (313.15 K, 110000 kPa) was 853.3 ± 1 kg/m3. The mass density (313.15 K, 120000 kPa) was 857.5 ± 1 kg/m3, the mass density (313.15 K, 130000 kPa) was 861.5 ± 1 kg/m3 and the mass density (313.15 K, 140000 kPa) was 865.4 ± 1 kg/m3. The viscosity (323.15 K, 100 kPa) was 1.331 ± 0.028 mPa·s, the viscosity (333.15 K, 100 kPa) was 1.007 ± 0.021 mPa·s and the mass density (333.15 K, 100 kPa) was 770.7 ± 0.7 kg/m3. It also gave a mass density (333.15 K, 1000 kPa) of 771.6 ± 0.7 kg/m3, a mass density (333.15 K, 2000 kPa) of 772.6 ± 0.7 kg/m3 and a mass density (333.15 K, 5000 kPa) of 775.5 ± 0.7 kg/m3. The mass density (333.15 K, 10000 kPa) was 780.1 ± 0.7 kg/m3, the mass density (333.15 K, 15000 kPa) was 784.4 ± 0.7 kg/m3 and the mass density (333.15 K, 20000 kPa) was 788.6 ± 0.7 kg/m3. The mass density (333.15 K, 30000 kPa) was 796.2 ± 0.8 kg/m3, the mass density (333.15 K, 40000 kPa) was 803.2 ± 0.8 kg/m3 and the mass density (333.15 K, 50000 kPa) was 809.6 ± 0.8 kg/m3. The mass density (333.15 K, 60000 kPa) was 815.7 ± 0.9 kg/m3, the mass density (333.15 K, 70000 kPa) was 821.4 ± 0.9 kg/m3 and the mass density (333.15 K, 80000 kPa) was 826.7 ± 0.9 kg/m3. For the same compound, the mass density (333.15 K, 90000 kPa) was 831.8 ± 0.9 kg/m3, the mass density (333.15 K, 100000 kPa) was 836.6 ± 1 kg/m3 and the mass density (333.15 K, 110000 kPa) was 841.2 ± 1 kg/m3. It also gave a mass density (333.15 K, 120000 kPa) of 845.5 ± 1 kg/m3, a mass density (333.15 K, 130000 kPa) of 849.8 ± 1.1 kg/m3 and a mass density (333.15 K, 140000 kPa) of 853.9 ± 1.1 kg/m3.
